In patent US20220160680A1, “MICROORGANISM MIXTURES, MOLECULES DERIVED THEREFROM, AND METHODS OF USE THEREOF” (B. G. Negev Technologies and Applications Ltd., at …, priority 2018, published 2022):

Assays:
amyloid beta (αβ1-42) = target: T1, amyloid beta (αβ1-42) (Homo sapiens, UniProt P05067); test: Surface plasmon resonance, anti-amyloid oligomer antibody chip; assay type: binding; conditions: 30 μM αβ1-42, 6-200 μM
T1 construct: samples containing 30 μM amyloid beta [4(1-42)] in the absence or presence of tryptophol acetate
Description: SPR sensor chip with Oligomer All antibody, an anti-amyloid oligomer conformation-specific antibody was tested with samples containing 30 μM 4(1-42) in the absence or presence of tryptophol acetate in different concentrations.

[1] = DPPH radical absorbance assay; assay type: biochemical; conditions: 517 nm
Excerpt: FIGS. 34A-34B are graphs showing the anti-oxidation effect of tryptophol acetate and tyrosol acetate. Anti-oxidative capacity of the molecules as measured by DPPH (34A) and ORAC (34B) assays. 34A. The results are presented as a percentage of absorbance inhibition (517 nm, the absorbance maximum of DPPH) in the presence of tryptophol acetate (1) alone, tyrosol acetate alone (2) alone, and 1+2 together. 34B. Fluorescence decay of fluorescein induced by AAPH in the absence or presence of 1 and 2. Reaction mixtures containing fluorescein (60 nM) and AAPH (18.75 mM) in 200 μl of phosphate buffer (75 mM, pH 7.4) were incubated at 37° C. for 800 min. Changes in fluorescence intensity emitted by fluorescein were monitored. Results are presented as the net area under the curve (AUC). Each value is the mean±SD of triplicate experiments. ***p<0.0001
The inventors analyzed the anti-oxidation properties of the molecules (FIG. 34) as oxidation processes and generation of reactive oxidative species (ROS) are recognized as contributing to toxic effects in diverse diseases and pathological conditions. FIG. 34 depicts application of a spectrophotometric assay monitoring the visible absorbance of the 2,2-diphenyl-1-picrylhydrazyl (DPPH) radical, which is widely employed for evaluating the anti-oxidation activity of biomolecules. […]

V. cholerae VC1 WT = test: RT-qPCR of QS genes; assay type: cell-based, Vibrio cholerae; conditions: 100 μM
Description: RNA was extracted from wild-type strain VC1 cultured in LB lennox medium supplemented with or without 100 μM Tryptophol acetate or Tyrosol acetate grown to an A600 of approximately 1.0OD using the RNA Protect Bacteria reagent and the RNeasy® Mini Kit (Qiagen, Valencia, Calif.) as per the manufacturer's instructions, including the on-column DNase I digestion described by the manufacturer. Purified RNA was quantified using a Banalyzer (Eppendorf, Hamburg, Germany). cDNA was synthesized from 1 μg of RNA using PrimeScript™ RT reagent kit (Takara, Ohtsu, Japan). The reaction was incubated at 37° C. for 30 min, and 2 μl of cDNA was subjected to RT-PCR analysis on an AB Step One Plus PCR system (Applied Biosystems, Carlsbad, Calif.), using qPCRBIO SyGreen Blue mix Hi-ROX (PCR Biosystems, London, UK). RT-PCR was performed in a 96-well plate (Bio-Rad) in triplicate in a 20 μl volume. The mdh gene was used as an endogenous loading control for the reactions. The amount of transcript was analyzed with StepOnePlus Software V2.3 (Applied Biosystems Carlsbad, Calif.). Mdh forward primer 5′-[…]-3′ (SEQ ID NO: 1); Mdh reverse primer 5′-[…]-3′ (SEQ ID NO: 2); vpsT forward primer 5′-[…]-3′ (SEQ ID NO: 3); vpsT reverse primer 5′-[…]-3′ (SEQ ID NO: 4); ctxA forward primer 5′-[…]-3′ (SEQ ID NO: 5); ctxA reverse primer 5′-[…]-3′ (SEQ ID NO: 6); aphA forward primer 5′-[…]-3′ (SEQ ID NO: 7); aphA reverse primer 5′-[…]-3′ (SEQ ID NO: 8). For Transcriptome libraries construction, we used the purified RNA as described in section Quantitative Real-time PCR (RT-PCR) Analysis. The ribosomal RNA was depleted using MICROBExpress kit (Invitrogen by Thermo Fisher Scientific, Lithuania). The libraries preparation was performed using SMARTer Standard RNA-Seq kit (Takara Bio, USA) according to manufacture instruction. High Throughput Sequencing Analysis was done by Illumina HiSeq 2500, SR 50 bp and barcode Raw data quality values phred+33. the amount and percentage of reads that passed the sequencer's automated quality filter, control mapping value, error rate, and per-base quality scores indicate that the sequencing was of high quality. Only a small percentage of reads were discarded due to trimming and the peak of the length distribution is at the original length of 51. The Software and applications that were used for comparison analyses are Library quality control: FASTQC version 0.11.5; Trim_galore (uses cutadapt version 1.10); Mapping: Tophat2 version 2.1.0 (uses Bowtie2 version 2.2.6); Gene counting: HTseq-count version 0.6.1. For normalization and differential expression analysis, DESeq2 R package version 1.18.1 Input files. The reference genome used in the analysis was of Vibrio cholerae O1 biovar El Tor str. N16961, from the following link: ftp://ftp.ncbi.nlm.nih.gov/genomes/all/GCF/000/006/745/GCF_000006745.1_ASM674v1. Counting was performed using an annotation file downloaded at the following link: ftp://ftp.ncbi.nlm.nih.gov/genomes/all/GCF/000/006/745/GCF_000006745.1_ASM674v1/G CF_000006745.1_ASM674v1_genomic.gtf.gz. All these files can be found in our FTP server, see section 4-Analysis result files.

[2] = system: Agrobacterium tumefaciens A136; test: Quorum sensing bioluminescence reporter assay; assay type: cell-based; conditions: C8 (3-oxo-C8-HSL) autoinducer
Description: Bioluminescence assay was performed with mutant bacteria lacking the nucleotide sequences encoding the relevant autoinducers (AI). Additionally, the bacteria were cloned with bioluminescence reporter plasmids in order to measure their luminescence intensity when quorum sensing gene expression occurs. Ninety-six (96) well microtiter plate assays were used to assess AI activation (agonist) or inhibition (antagonist) of the following bacteria: Agrobacterium tumefaciens, which responds to the C8 autoinducer, and both Vibrio cholerae and Vibrio harveyi, which respond to the (S)-4,5-dihydroxy-2,3-pentanedione (DPD) autoinducer to communicate.
Agrobacterium tumefaciens A136 pCF218 pMV26 culture was grown in Luria-Bertani broth (LB; Miller's broth) supplemented with 25 μg/ml of kanamycin and 4.5 μg/ml of tetracycline at 28-30° C. for 24 h. […] The overnight cultures were diluted to an absorbance density (OD600) of 0.05 by fresh LB medium. […] Luminescence was measured every 20 min for 19 h with continuous shaking at 30° C., using a Microtiter Plate Reader (Varioskan Flash, Thermo). Average luminescence values divided by OD600 values were plotted against the added compound concentration.
The effect of the Kefir biomass crude extract molecules on the following bacteria, A. tumefaciens A136, V. cholerae MM920 and V. harveyi MM30 were measured as described by Brenier et al. (2008). […]

T1 sequence (P05067 672-713 limits assumed): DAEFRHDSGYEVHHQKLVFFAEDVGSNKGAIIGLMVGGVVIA

Row | SMILES | Inhibition of amyloid beta (SPR) (amyloid beta (αβ1-42)) | Quenching of DPPH absorbance [1] | aphA expression (V. cholerae VC1 WT; high cell density) | ctxA expression (V. cholerae VC1 WT; high cell density) | hapA expression (V. cholerae VC1 WT; high cell density) | hapR expression (V. cholerae VC1 WT; high cell density) | vpsT expression (V. cholerae VC1 WT; high cell density) | Effect on QS in A. tumefaciens [2] | QS-related genes' expression (V. cholerae VC1 WT)
1 | CC(=O)OCCc1c[nH]c2ccccc12 [Tryptophol acetate] | dose dependent manner | 10% | upregulation | significantly repressed | lower expression | significant downregulation | remarkable upregulation | inhibits QS | –
2 | CC(=O)OCCc1ccc(O)cc1 [Tyrosol acetate] | – | ~3% | – | – | – | – | – | – | affect QS-related genes' expression
